ChEMBL document CHEMBL3046421, “Transition metals in organic synthesis - Part 83#: Synthesis and pharmacological potential of carbazoles” (Med Chem Res, 2008)
≈ marks a conversion by molar mass, not a printed value.

Key:
[1] = tested on: Vero; assay: Cytotoxicity against Chlorocebus aethiops (African green monkey) Vero cells; assay type: cell-based; details: Chlorocebus sabaeus
[2] = tested on: Mycobacterium tuberculosis; assay: Antimycobacterial activity against Mycobacterium tuberculosis H37Rv by microplate alamar blue assay; assay type: functional
[3] = Selectivity index, ratio of IC50 for african green monkey Vero cells to MIC90 for Mycobacterium tuberculosis H37Rv; assay type: toxicity, cell-based; details: read-out: Selectivity Index
[4] = tested on: Mycobacterium tuberculosis; assay: Antimycobacterial activity against Mycobacterium tuberculosis H37Rv; assay type: functional
[5] = biological target: T1, Polyunsaturated fatty acid 5-lipoxygenase (Rattus norvegicus, UniProt P12527); assay: Inhibition of Rattus norvegicus (rat) 5-lipoxygenase
T1 sequence (P12527 whole entry): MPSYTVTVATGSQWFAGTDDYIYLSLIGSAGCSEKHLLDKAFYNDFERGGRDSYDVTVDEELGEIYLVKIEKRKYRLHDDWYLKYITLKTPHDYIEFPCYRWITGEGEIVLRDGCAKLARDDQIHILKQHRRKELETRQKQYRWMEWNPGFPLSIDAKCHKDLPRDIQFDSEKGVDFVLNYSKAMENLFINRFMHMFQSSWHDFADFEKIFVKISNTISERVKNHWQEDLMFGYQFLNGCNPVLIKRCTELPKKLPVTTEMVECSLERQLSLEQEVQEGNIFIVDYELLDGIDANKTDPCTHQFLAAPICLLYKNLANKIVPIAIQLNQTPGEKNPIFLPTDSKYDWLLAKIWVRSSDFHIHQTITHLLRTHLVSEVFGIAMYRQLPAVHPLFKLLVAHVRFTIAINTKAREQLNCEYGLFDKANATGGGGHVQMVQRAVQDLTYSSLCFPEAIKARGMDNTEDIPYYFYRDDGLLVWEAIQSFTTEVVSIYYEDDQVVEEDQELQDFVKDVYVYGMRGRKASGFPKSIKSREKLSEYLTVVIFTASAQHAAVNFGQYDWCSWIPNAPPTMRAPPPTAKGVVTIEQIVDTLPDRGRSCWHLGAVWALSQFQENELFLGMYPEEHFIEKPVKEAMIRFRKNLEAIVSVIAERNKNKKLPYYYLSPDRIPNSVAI

[6] = tested on: Brain; assay: Inhibition of free-radical-induced lipid peroxidation in Rattus norvegicus (rat) brain homogenates; assay type: functional, tissue-based
[7] = tested on: Mycobacterium tuberculosis; assay: Antimycobacterial activity against Mycobacterium tuberculosis H37Ra; assay type: functional
[8] = tested on: Plasmodium falciparum; assay: Antiplasmodial activity against Plasmodium falciparum; assay type: functional, organism-based

Structure (SMILES)	IC50 [1] [µM]	MIC90 [2] [µM]	selectivity ratio [3]	other results
COc1ccc2[nH]c3ccc(C=O)cc3c2c1	> 128	99 (≈ 22.3 µg/mL)	> 1.3	MIC90 [4]: 15.6 µg/mL (≈ 69.3 µM)
COC(=O)c1ccc2[nH]c3ccc(OC)cc3c2c1	> 128	32 (≈ 8.17 µg/mL)	> 4	
COc1c(C)c(C[C@@H](C)OC(C)=O)c2[nH]c3ccc(Br)cc3c2c1OC(C)=O	25	55 (≈ 24.7 µg/mL)	0.5	
COc1ccc2c(c1)[nH]c1cc(OC)c(C)cc12	> 128	> 128		
Cc1c(O)cc2c([nH]c3c(O)ccc(CO)c32)c1C1OC1(C)CCC(C)C (racemic) [RAC-EPOCARBAZOLIN A]				IC50 [5]: 2.4 µM
COC1=C(C)C(=O)c2[nH]c3ccccc3c2C1=O [3-METHOXY-2-METHYLCARBAZOLE-1,4-QUINONE]	> 128	8 (≈ 1.93 µg/mL)	> 16	
COc1ccc2[nH]c3ccc(C=O)cc3c2c1Br [5-BROMO-3-FORMYL-6-METHOXYCARBAZOLE]	78	> 128	< 0.6	
COc1ccc2c(c1)[nH]c1ccc(C)cc12 [7-METHOXY-3-METHYLCARBAZOLE]		> 128		
COc1c(C)c(C[C@@H](C)O)c2[nH]c3ccc(CC=C(C)C)cc3c2c1O [(R)-(-)-NEOCARAZOSTATIN B]				IC50 [6]: 0.39 µM
COC(=O)c1ccc2[nH]c3cc(OC)ccc3c2c1 [CLAUSINE C]		> 128		
COc1ccc2c(c1)[nH]c1cc(OC)c(C(=O)O)cc12 [CLAUSINE K]	25	> 128	< 0.2	MIC90 [7]: 100 µg/mL (≈ 369 µM)
COC(=O)c1ccc2[nH]c3cc(O)ccc3c2c1 [CLAUSINE M]	35	19 (≈ 4.58 µg/mL)	1.8	
COc1ccc2c(c1)[nH]c1ccc(C(=O)O)cc12 [CLAUSINE N]		> 128		
O=Cc1cc2c(cc1O)[nH]c1cc(O)ccc12 [CLAUSINE O]	114	89 (≈ 20.2 µg/mL)	1.3	
COC(=O)c1cc2c(cc1OC)[nH]c1cc(OC)ccc12 [CLAUSZOLINE C]				IC50 [8]: 5.5 µg/mL (≈ 19.3 µM)
COc1ccc2c(c1)[nH]c1ccc(C=O)cc12 [CLAUSZOLINE K]		> 128		
CC[C@H](C)CCC1(C)OC1c1c(C)c(O)cc2c1[nH]c1c(O)ccc(CO)c12 (stereo partly specified) [EPOCARBAZOLIN B]				IC50 [5]: 2.6 µM
Cc1ccc2[nH]c3ccc4occc4c3c2c1 [EUSTIFOLINE-D]	> 128	> 128		
COc1ccc2[nH]c3ccc(C)cc3c2c1 [GLYCOZOLINE]		> 128		
Cc1ccc2[nH]c3ccc(O)cc3c2c1 [GLYCOZOLININE]	57	123 (≈ 24.3 µg/mL)	0.5	
NNC(=O)c1ccncc1 [ISONIAZID]	> 128	0.4 (≈ 0.0549 µg/mL)	> 320	
COc1ccc2c(c1)[nH]c1cc(OC)c(C=O)cc12 [LANSINE]	96	> 128	< 0.8	
CC(C)=CCc1c(O)ccc2[nH]c3ccc(C=O)cc3c12 [MICROMELINE]		> 128		MIC90 [4]: 31.5 µg/mL (≈ 113 µM)
CO[C@H]1/C=C/O[C@@]2(C)Oc3c(C)c(O)c4c(O)c(c(/C=N/N5CCN(C)CC5)c(O)c4c3C2=O)NC(=O)/C(C)=C\C=C\[C@H](C)[C@H](O)[C@@H](C)[C@@H](O)[C@@H](C)[C@H](OC(C)=O)[C@@H]1C [RIFAMPIN]	105	0.09 (≈ 0.0741 µg/mL)	1170	
CC(C)=CCc1cc2c(cc1O)[nH]c1ccc(C)cc12 [SIAMENOL]	15	22 (≈ 5.84 µg/mL)	0.7	
